Measured values as given in ChEMBL document CHEMBL4630909 (2021).
Activity calls are given as the source filed them. The rule behind the calls is not given here.

Tests used:
C-C motif chemokine 2 = C-C motif chemokine 2 (Homo sapiens, UniProt P13500); test: In vitro inhibition of MCP-1 in Lipopolysaccharide-stimulated human whole blood; assay type: tissue-based
[1] = molecular target: ATPase family AAA domain-containing protein 2 (Homo sapiens, UniProt Q6PL18); test: ATAD2A DiscoverX BROMOscan
[2] = molecular target: ATPase family AAA domain-containing protein 2B (Homo sapiens, UniProt Q9ULI0); test: ATAD2B DiscoverX BROMOscan
[3] = molecular target: Bromodomain adjacent to zinc finger domain protein 2A (Homo sapiens, UniProt Q9UIF9); test: BAZ2A DiscoverX BROMOscan
[4] = molecular target: Bromodomain adjacent to zinc finger domain protein 2B (Homo sapiens, UniProt Q9UIF8); test: BAZ2B DiscoverX BROMOscan
[5] = molecular target: Bromodomain-containing protein 1 (Homo sapiens, UniProt O95696); test: BRD1 DiscoverX BROMOscan
[6] = molecular target: Bromodomain-containing protein 7 (Homo sapiens, UniProt Q9NPI1); test: BRD7 DiscoverX BROMOscan
[7] = molecular target: T1, Bromodomain-containing protein 8 (Homo sapiens, UniProt Q9H0E9); test: BRD8(1) DiscoverX BROMOscan
T1 sequence (Q9H0E9 whole entry): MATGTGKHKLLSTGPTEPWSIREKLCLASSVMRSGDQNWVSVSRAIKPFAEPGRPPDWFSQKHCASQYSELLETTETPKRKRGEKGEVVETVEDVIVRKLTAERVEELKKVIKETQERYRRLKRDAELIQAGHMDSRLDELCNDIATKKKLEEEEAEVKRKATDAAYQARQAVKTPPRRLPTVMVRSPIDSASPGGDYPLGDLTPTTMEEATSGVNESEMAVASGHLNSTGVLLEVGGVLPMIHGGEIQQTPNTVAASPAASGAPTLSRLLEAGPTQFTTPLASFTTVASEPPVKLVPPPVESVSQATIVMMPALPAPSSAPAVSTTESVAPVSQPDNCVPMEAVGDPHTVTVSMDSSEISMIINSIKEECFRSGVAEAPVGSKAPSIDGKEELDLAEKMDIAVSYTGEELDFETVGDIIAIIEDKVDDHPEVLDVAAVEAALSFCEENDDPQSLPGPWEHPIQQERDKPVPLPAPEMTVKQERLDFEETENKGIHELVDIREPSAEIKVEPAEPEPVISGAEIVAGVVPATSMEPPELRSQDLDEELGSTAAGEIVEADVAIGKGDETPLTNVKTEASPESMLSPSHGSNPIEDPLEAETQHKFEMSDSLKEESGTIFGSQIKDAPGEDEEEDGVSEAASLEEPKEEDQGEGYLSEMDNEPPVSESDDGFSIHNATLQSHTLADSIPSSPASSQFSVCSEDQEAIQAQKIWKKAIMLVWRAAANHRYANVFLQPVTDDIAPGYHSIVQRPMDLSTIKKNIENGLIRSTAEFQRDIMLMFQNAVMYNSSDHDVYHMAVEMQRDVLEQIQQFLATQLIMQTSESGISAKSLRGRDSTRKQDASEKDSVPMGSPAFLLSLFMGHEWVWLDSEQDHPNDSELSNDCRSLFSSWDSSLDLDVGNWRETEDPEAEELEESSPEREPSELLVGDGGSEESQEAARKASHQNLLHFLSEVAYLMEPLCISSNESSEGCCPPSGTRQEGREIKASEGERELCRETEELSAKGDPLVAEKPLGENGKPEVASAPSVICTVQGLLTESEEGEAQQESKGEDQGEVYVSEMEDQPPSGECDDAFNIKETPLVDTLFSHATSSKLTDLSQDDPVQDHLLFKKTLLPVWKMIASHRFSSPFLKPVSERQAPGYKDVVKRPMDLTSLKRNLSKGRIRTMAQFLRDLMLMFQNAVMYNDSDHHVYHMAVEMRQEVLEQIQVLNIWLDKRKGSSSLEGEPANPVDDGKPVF

[8] = molecular target: T1, Bromodomain-containing protein 8; test: BRD8(2) DiscoverX BROMOscan
[9] = molecular target: Bromodomain-containing protein 9 (Homo sapiens, UniProt Q9H8M2); test: BRD9 DiscoverX BROMOscan
Peregrin = Peregrin (Homo sapiens, UniProt P55201); test: BRPF1 DiscoverX BROMOscan
[10] = molecular target: Bromodomain and PHD finger-containing protein 3 (Homo sapiens, UniProt Q9ULD4); test: BRPF3 DiscoverX BROMOscan
[11] = molecular target: Chromatin remodeling regulator CECR2 (Homo sapiens, UniProt Q9BXF3); test: CECR2 DiscoverX BROMOscan
CREB-binding protein = CREB-binding protein (Homo sapiens, UniProt Q92793); test: CREBBP DiscoverX BROMOscan
[12] = molecular target: Histone acetyltransferase p300 (Homo sapiens, UniProt Q09472); test: EP300 DiscoverX BROMOscan
[13] = molecular target: Nucleosome-remodeling factor subunit BPTF (Homo sapiens, UniProt Q12830); test: FALZ DiscoverX BROMOscan
[14] = molecular target: Histone acetyltransferase KAT2A (Homo sapiens, UniProt Q92830); test: GCN5L2 DiscoverX BROMOscan
Protein polybromo-1 [15] = molecular target: T2, Protein polybromo-1 (Homo sapiens, UniProt Q86U86); test: PBRM1(2) DiscoverX BROMOscan
T2 sequence (Q86U86 whole entry): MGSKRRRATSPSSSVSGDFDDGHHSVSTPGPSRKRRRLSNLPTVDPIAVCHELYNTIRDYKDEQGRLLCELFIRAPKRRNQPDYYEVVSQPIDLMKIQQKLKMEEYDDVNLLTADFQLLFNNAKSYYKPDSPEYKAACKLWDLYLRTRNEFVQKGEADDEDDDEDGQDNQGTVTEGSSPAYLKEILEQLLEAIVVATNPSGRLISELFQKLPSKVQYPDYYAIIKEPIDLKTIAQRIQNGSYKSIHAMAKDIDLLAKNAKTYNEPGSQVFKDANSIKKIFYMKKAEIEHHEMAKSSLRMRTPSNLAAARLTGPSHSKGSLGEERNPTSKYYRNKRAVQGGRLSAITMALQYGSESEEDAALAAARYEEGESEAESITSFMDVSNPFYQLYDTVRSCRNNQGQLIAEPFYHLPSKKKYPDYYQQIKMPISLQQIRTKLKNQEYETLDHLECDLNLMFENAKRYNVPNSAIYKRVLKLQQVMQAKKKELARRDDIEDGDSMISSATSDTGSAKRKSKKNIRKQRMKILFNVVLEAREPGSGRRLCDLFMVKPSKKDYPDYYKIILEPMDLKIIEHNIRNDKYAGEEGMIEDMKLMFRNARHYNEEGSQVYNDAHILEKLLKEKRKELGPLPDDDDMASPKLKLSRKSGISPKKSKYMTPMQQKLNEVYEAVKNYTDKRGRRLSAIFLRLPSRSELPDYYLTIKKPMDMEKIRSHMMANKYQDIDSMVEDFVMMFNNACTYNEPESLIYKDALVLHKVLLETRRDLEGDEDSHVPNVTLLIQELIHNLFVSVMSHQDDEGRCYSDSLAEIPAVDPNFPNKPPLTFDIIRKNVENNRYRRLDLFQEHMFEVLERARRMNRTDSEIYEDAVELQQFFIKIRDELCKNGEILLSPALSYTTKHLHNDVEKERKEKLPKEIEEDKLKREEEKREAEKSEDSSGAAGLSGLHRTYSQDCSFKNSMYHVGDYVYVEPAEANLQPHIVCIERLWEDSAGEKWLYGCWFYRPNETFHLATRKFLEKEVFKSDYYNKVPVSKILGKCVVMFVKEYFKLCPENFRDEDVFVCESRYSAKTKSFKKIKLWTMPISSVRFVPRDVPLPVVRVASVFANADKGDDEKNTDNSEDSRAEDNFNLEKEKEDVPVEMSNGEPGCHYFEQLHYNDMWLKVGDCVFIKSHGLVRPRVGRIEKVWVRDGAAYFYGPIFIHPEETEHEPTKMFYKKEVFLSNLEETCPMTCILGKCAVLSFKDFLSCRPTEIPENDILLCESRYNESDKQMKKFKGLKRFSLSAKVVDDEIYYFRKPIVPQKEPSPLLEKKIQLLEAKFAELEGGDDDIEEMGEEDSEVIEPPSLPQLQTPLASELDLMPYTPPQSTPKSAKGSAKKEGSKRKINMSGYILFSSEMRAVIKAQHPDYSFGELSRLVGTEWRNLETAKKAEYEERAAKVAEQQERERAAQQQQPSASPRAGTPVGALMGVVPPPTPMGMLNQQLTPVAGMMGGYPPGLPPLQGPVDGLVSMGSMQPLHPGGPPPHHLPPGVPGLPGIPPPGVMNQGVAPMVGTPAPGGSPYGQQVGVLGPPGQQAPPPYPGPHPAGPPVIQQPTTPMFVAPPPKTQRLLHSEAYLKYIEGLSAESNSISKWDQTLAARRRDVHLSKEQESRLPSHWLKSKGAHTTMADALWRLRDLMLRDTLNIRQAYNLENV

Protein polybromo-1 [16] = molecular target: T2, Protein polybromo-1; test: PBRM1(5) DiscoverX BROMOscan
[17] = molecular target: Histone acetyltransferase KAT2B (Homo sapiens, UniProt Q92831); test: PCAF DiscoverX BROMOscan
[18] = molecular target: SWI/SNF-related matrix-associated actin-dependent regulator of chromatin subfamily A member 2 (Homo sapiens, UniProt P51531); test: SMARCA2 DiscoverX BROMOscan
[19] = molecular target: SWI/SNF-related matrix-associated actin-dependent regulator of chromatin subfamily A member 4 (Homo sapiens, UniProt P51532); test: SMARCA4 DiscoverX BROMOscan
[20] = molecular target: Transcription initiation factor TFIID subunit 1 (Homo sapiens, UniProt P21675); test: TAF1(2) DiscoverX BROMOscan
[21] = molecular target: Transcription initiation factor TFIID subunit 1-like (Homo sapiens, UniProt Q8IZX4); test: TAF1L(2) DiscoverX BROMOscan
[22] = molecular target: Transcription intermediary factor 1-alpha (Homo sapiens, UniProt O15164); test: TRIM24(PHD,Bromo.) DiscoverX BROMOscan
[23] = molecular target: E3 ubiquitin-protein ligase TRIM33 (Homo sapiens, UniProt Q9UPN9); test: TRIM33(PHD,Bromo.) DiscoverX BROMOscan
[24] = molecular target: Bromodomain and WD repeat-containing protein 1 (Homo sapiens, UniProt Q9NSI6); test: WDR9(2) DiscoverX BROMOscan
[25] = molecular target: 3',5'-cyclic-AMP phosphodiesterase 4B (Homo sapiens, UniProt Q07343); test: (§1) Cross screening panel
[26] = molecular target: 5-hydroxytryptamine receptor 1B (Homo sapiens, UniProt P28222); test: as §1
[27] = molecular target: 5-hydroxytryptamine receptor 2A (Homo sapiens, UniProt P28223); test: as §1
Sequence of 5-hydroxytryptamine receptor 2A (P28223 whole entry): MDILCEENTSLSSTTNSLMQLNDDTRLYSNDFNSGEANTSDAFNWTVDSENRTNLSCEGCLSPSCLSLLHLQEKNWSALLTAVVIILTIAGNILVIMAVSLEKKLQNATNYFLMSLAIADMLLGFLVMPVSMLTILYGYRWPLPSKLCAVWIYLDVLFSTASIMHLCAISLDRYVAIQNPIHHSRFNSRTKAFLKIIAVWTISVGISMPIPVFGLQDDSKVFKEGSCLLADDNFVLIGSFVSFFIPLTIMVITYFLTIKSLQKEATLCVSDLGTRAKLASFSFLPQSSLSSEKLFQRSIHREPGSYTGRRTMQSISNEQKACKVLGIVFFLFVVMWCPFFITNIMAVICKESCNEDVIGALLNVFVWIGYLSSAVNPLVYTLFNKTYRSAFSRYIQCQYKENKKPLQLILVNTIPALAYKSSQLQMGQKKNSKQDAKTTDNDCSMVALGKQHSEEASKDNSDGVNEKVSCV

[28] = molecular target: 5-hydroxytryptamine receptor 2C (Homo sapiens, UniProt P28335); test: as §1
Sequence of 5-hydroxytryptamine receptor 2C (P28335 whole entry): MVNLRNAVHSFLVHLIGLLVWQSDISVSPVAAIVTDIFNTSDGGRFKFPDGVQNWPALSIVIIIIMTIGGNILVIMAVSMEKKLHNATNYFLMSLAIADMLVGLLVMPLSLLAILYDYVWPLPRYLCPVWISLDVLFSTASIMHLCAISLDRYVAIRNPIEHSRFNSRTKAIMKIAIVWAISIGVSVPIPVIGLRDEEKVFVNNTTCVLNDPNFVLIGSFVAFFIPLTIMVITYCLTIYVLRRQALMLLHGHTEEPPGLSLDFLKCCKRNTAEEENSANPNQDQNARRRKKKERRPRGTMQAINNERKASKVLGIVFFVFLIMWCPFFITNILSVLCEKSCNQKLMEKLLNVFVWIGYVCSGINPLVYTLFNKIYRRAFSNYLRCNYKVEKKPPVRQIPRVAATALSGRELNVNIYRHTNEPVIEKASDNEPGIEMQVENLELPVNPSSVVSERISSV

[29] = molecular target: 5-hydroxytryptamine receptor 3A (Homo sapiens, UniProt P46098); test: as §1
[30] = molecular target: Acetylcholine receptor subunit alpha (Homo sapiens, UniProt P02708); test: as §1
Sequence of Acetylcholine receptor subunit alpha (P02708 whole entry): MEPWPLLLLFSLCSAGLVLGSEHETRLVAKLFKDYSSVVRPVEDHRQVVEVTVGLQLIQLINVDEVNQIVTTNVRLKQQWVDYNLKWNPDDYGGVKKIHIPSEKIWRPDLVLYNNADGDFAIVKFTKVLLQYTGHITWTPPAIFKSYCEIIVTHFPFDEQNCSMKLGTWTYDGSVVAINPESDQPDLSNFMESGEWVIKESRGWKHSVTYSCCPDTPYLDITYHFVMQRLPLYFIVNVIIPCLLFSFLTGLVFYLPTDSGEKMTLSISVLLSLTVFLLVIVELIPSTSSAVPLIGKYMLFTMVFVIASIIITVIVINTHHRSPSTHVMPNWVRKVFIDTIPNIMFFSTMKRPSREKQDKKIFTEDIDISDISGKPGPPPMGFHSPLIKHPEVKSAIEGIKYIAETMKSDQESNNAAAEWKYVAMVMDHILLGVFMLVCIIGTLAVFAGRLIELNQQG

Acetylcholinesterase = Acetylcholinesterase (Homo sapiens, UniProt P22303); test: as §1
Adenosine receptor A2a = Adenosine receptor A2a (Homo sapiens, UniProt P29274); test: as §1
[31] = molecular target: Alpha-1B adrenergic receptor (Homo sapiens, UniProt P35368); test: as §1
[32] = molecular target: Alpha-2C adrenergic receptor (Homo sapiens, UniProt P18825); test: as §1
[33] = molecular target: Amine oxidase [flavin-containing] A (Homo sapiens, UniProt P21397); test: as §1
[34] = molecular target: Aryl hydrocarbon receptor (Homo sapiens, UniProt P35869); test: as §1
Aurora kinase B = Aurora kinase B (Homo sapiens, UniProt Q96GD4); test: as §1
Sequence of Aurora kinase B (Q96GD4 whole entry): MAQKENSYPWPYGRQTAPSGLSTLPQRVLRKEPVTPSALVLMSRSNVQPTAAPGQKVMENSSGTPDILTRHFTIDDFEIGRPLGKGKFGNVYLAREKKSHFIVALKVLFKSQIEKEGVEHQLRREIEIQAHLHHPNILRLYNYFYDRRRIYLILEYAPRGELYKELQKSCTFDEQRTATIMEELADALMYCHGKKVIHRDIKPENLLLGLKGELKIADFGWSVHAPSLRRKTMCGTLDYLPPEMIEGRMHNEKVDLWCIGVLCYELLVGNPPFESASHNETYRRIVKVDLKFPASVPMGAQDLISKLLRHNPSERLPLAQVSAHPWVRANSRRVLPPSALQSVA

[35] = molecular target: Beta-2 adrenergic receptor (Homo sapiens, UniProt P07550); test: as §1
Sequence of Beta-2 adrenergic receptor (P07550 whole entry): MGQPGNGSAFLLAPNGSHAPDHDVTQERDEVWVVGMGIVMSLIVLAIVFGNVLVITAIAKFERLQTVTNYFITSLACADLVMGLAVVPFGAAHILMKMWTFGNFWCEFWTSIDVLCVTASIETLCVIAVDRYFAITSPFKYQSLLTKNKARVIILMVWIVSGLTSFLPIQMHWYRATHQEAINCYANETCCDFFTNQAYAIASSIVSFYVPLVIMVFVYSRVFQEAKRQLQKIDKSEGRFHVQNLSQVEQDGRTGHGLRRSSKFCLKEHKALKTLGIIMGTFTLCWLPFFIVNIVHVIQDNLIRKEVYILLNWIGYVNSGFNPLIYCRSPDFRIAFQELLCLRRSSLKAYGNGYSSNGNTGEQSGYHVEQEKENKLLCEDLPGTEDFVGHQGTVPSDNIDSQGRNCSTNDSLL

Cannabinoid receptor 2 = Cannabinoid receptor 2 (Homo sapiens, UniProt P34972); test: as §1
D(1A) dopamine receptor = D(1A) dopamine receptor (Homo sapiens, UniProt P21728); test: as §1
D(2) dopamine receptor = D(2) dopamine receptor (Homo sapiens, UniProt P14416); test: as §1
[36] = molecular target: Glutamate receptor ionotropic, NMDA 2B (Homo sapiens, UniProt Q13224); test: as §1
Histamine H1 receptor = Histamine H1 receptor (Homo sapiens, UniProt P35367); test: as §1
[37] = molecular target: Kappa-type opioid receptor (Homo sapiens, UniProt P41145); test: as §1
Mu-type opioid receptor = Mu-type opioid receptor (Homo sapiens, UniProt P35372); test: as §1
[38] = molecular target: Muscarinic acetylcholine receptor M1 (Homo sapiens, UniProt P11229); test: as §1

CNC(=O)c1cc(C(=O)NC2CC2)cn(Cc2ccccc2)c1=O [GSK620]
IC50 (C-C motif chemokine 2): 0.794 µM (active) | Kd [1]: 31.6 µM | Kd [2]: 31.6 µM | Kd [3]: 31.6 µM | Kd [4]: 31.6 µM | Kd [5]: 25.1 µM | Kd [6]: 31.6 µM | Kd [7]: 31.6 µM | Kd [8]: 31.6 µM | Kd [9]: 31.6 µM | Kd (Peregrin): 31.6 µM | Kd [10]: 31.6 µM | Kd [11]: 31.6 µM | Kd (CREB-binding protein): 10 µM | Kd [12]: 7.94 µM | Kd [13]: 25.1 µM | Kd [14]: 31.6 µM | Kd (Protein polybromo-1 [15]): 31.6 µM | Kd (Protein polybromo-1 [16]): 31.6 µM | Kd [17]: 31.6 µM | Kd [18]: 31.6 µM | Kd [19]: 31.6 µM | Kd [20]: 3.98 µM | Kd [21]: 25.1 µM | Kd [22]: 31.6 µM | Kd [23]: 31.6 µM | Kd [24]: 31.6 µM | IC50 [25]: > 100 µM | EC50 [26]: > 100 µM | IC50 [26]: > 100 µM | EC50 [27]: > 25.1 µM | IC50 [27]: > 25.1 µM | EC50 [28]: > 25.1 µM | IC50 [28]: > 25.1 µM | EC50 [29]: > 50.1 µM | IC50 [29]: > 50.1 µM | EC50 [30]: > 50.1 µM | IC50 [30]: > 50.1 µM | IC50 (Acetylcholinesterase): > 100 µM | EC50 (Adenosine receptor A2a): > 100 µM | IC50 [31]: > 25.1 µM | EC50 [32]: > 100 µM | IC50 [33]: > 100 µM | EC50 [34]: > 100 µM | IC50 (Aurora kinase B): > 31.6 µM | EC50 [35]: > 100 µM | IC50 [35]: > 100 µM | EC50 (Cannabinoid receptor 2): > 10 µM | IC50 (D(1A) dopamine receptor): > 100 µM | EC50 (D(2) dopamine receptor): > 100 µM | IC50 (D(2) dopamine receptor): > 100 µM | IC50 [36]: > 50.1 µM | IC50 (Histamine H1 receptor): > 25.1 µM | EC50 [37]: > 100 µM | EC50 (Mu-type opioid receptor): > 100 µM | EC50 [38]: > 50.1 µM
